Data as given in PubChem BioAssay (NCI).
Values joined by “and” are separate entries in the source; they are usually repeats but may differ in a detail not shown here. Identical values can stand only once.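 All cell lines were grown in 96-well plates and treated with compound for 48 hours. GI50: concentration for 50% inhibition of growth. TGI denotes the concentration required for complete inhibition of growth.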

What was measured:
Assay in all cases: NCI anticancer screen, dose series, 48 h
MALME-3M melanoma = system: MALME-3M melanoma
HT29 colon = system: HT29 colon
NCI-H23 lung = system: NCI-H23 lung
HOP-62 NSCLC = system: HOP-62 NSCLC
MDA-MB-231 breast = system: MDA-MB-231 breast
LOX IMVI melanoma = system: LOX IMVI melanoma
SN12C renal = system: SN12C renal
EKVX NSCLC = system: EKVX NSCLC
U251 CNS = system: U251 CNS
UACC-257 melanoma = system: UACC-257 melanoma

| SMILES | GI50 (MALME-3M melanoma) | TGI (MALME-3M melanoma) | GI50 (HT29 colon) | TGI (HT29 colon) | GI50 (NCI-H23 lung) | TGI (NCI-H23 lung) | GI50 (HOP-62 NSCLC) | TGI (HOP-62 NSCLC) | GI50 (MDA-MB-231 breast) | TGI (MDA-MB-231 breast) | GI50 (LOX IMVI melanoma) | TGI (LOX IMVI melanoma) | GI50 (SN12C renal) | TGI (SN12C renal) | GI50 (EKVX NSCLC) | TGI (EKVX NSCLC) | GI50 (U251 CNS) | TGI (U251 CNS) | GI50 (UACC-257 melanoma) | TGI (UACC-257 melanoma) |
| --- | --- | --- | --- | --- | --- | --- | --- | --- | --- | --- | --- | --- | --- | --- | --- | --- | --- | --- | --- | --- |
| O=c1c(O)cccc2cc(O)c(O)c(O)c12 | 4.99 µM | > 100 µM | 33.2 µM | > 100 µM | 8.89 µM | > 100 µM | > 100 µM | > 100 µM | 7.5 µM | > 100 µM | 13.2 µM | > 100 µM | 57.4 µM | > 100 µM | 19.1 µM | > 100 µM | 6.03 µM | > 100 µM | 5.84 µM | > 100 µM |
| CCCCCCCCCCCCCCCC[N+](C)(CCO)Cc1cnc[nH]1 (stereo not drawn) | 2.01 µM | 6.54 µM | 0.382 µM | 12.3 µM | 0.858 µM | 5.3 µM | 0.456 µM | 1.68 µM | 1.48 µM | 5.5 µM |  |  | 1.45 µM | 6.31 µM | 1.47 µM | 6.63 µM |  |  | 4.08 µM | 72.7 µM |
| N#CC(C#N)N=Nc1ccc(Br)cc1 | 1.35 µM | 10.4 µM | 3.39 µM | > 38.5 µM | 2.42 µM | 26.7 µM | 27.1 µM | > 100 µM | 1.69 µM | 7.04 µM | 3.75 µM | 16.5 µM | 2.64 µM | 9.51 µM | 6 µM | > 83 µM | 16.2 µM | > 100 µM | 2.12 µM | 7.54 µM |
| O=C(Nc1ccccc1O)c1ccc(CNc2ccnc(C(F)(F)F)c2)cc1 | 1.03 µM | 11.6 µM | 6.42 µM | > 100 µM | 4.72 µM | 81.4 µM | 5.54 µM | 47.6 µM | 9.29 µM | 50.6 µM | 2.8 µM | 46 µM | 4.61 µM | > 100 µM | 4.19 µM | > 100 µM | 4.73 µM | > 100 µM | 8.4 µM | > 100 µM |
| Cc1[nH]c2ccccc2c1-c1cc(-c2cc(-c3c(C)[nH]c4ccccc34)nc(N)n2)nc(N)n1 |  | > 100 µM |  | > 100 µM |  | > 100 µM |  | > 100 µM |  | > 100 µM |  | > 100 µM |  | > 100 µM |  | > 100 µM |  | > 100 µM |  | > 100 µM |
| O=[N+]([O-])/C=C/c1cc2ccccc2[nH]1 |  | 59.8 µM |  | 35.5 µM |  | 30.2 µM |  | 32.4 µM |  | 36.9 µM |  | 29.5 µM |  | 37.2 µM |  | 78 µM |  | 25.8 µM |  | 29.6 µM |
| COc1cc(Nc2ncc(F)c(Nc3ccc4c(n3)NC(=O)C(C)(C)O4)n2)cc(OC)c1OC | > 100 µM | > 100 µM | 1.32 µM and 2.01 µM | > 100 µM | 6.29 µM | > 10 µM | 1.38 µM and 4.74 µM | > 100 µM | 3.09 µM | > 10 µM | 1.57 µM | > 10 µM | 0.667 µM and 2.86 µM | > 100 µM | 4.3 µM | > 10 µM | > 10 µM | > 10 µM | > 10 µM | > 10 µM |
| COC1=CC23CCCN2CCc2cc4c(cc2C3C1O)OCO4 (stereo not drawn) |  | > 100 µM |  | > 100 µM |  | > 100 µM |  |  |  | > 100 µM |  | > 100 µM |  | > 100 µM |  | > 100 µM |  | > 100 µM |  | > 100 µM |
| O=Cc1ccc(-c2ccc(-c3nc4ccccc4o3)cc2)s1 |  |  | 53.8 µM | > 100 µM | 30.2 µM | > 100 µM | 27.9 µM | 82 µM | 21.9 µM | 55.2 µM | 16.7 µM | 36 µM | 29.4 µM | 81.3 µM | 20.3 µM | 77 µM | 29.1 µM | 80.8 µM | 49.3 µM | > 100 µM |
| O=C(/C=N/O)Nc1cc(Cl)c(Cl)cc1Cl |  | > 100 µM |  | > 100 µM |  | 86.6 µM |  | > 100 µM |  | 60 µM |  | > 100 µM |  | 94.3 µM |  | 96.9 µM |  | > 100 µM |  | 87.4 µM |
| Nc1ccccc1NC(=O)c1ccc(CCCC(=O)Nc2ccc(C3CC3N)cc2)cc1 (stereo not drawn) | 0.559 µM | 7.2 µM | 0.995 µM | > 100 µM | 2.29 µM | 33.8 µM | 2.01 µM | 20.7 µM | 2.77 µM | 48 µM | 1.45 µM | 3.47 µM | 3.62 µM | > 100 µM | 4.47 µM | > 100 µM | 1.34 µM | 4.06 µM |  |  |
| CC#C/C(=N\OC[C@H]1COCCN1)c1ccc2ncnc(Nc3ccc(OCc4cccc(F)c4)c(Cl)c3)c2c1 |  |  | 1.62 µM | 3.09 µM | 1.74 µM | 3.41 µM | 3 µM | 11.3 µM | 1.72 µM | 3.14 µM | 1.75 µM | 3.29 µM |  |  | 0.343 µM | 2.44 µM | 1.71 µM | 3.22 µM | 1.85 µM | 3.45 µM |
| OC(COc1ccc(F)cc1)Cn1cnc2c(Cl)ncnc21 (stereo not drawn) | 33.6 µM | > 100 µM | > 100 µM | > 100 µM |  |  | > 100 µM | > 100 µM | 64.7 µM | > 100 µM | 39.1 µM | > 100 µM | > 100 µM | > 100 µM | > 100 µM | > 100 µM | > 100 µM | > 100 µM | 46.8 µM | > 100 µM |
| CN1CCN(c2ccc(Nc3nc(N)c(C(=O)c4ccc5c(c4)OCCO5)s3)cc2)CC1 | 2.72 µM | 8.34 µM | 2.68 µM | 11.7 µM | 3.69 µM | 11.3 µM | 5.18 µM | 13.2 µM | 3.22 µM | 9.94 µM | 3.2 µM | 7.21 µM | 3.33 µM | > 25 µM |  |  | 2.83 µM | 11 µM | 3.97 µM | 12.6 µM |
| CCN(CC)c1ccc2c(c1)Oc1nc(N)c(C#N)c(N)c1C2Sc1ccc(OC)cc1 (stereo not drawn) | 1.82 µM | 3.45 µM | 2.1 µM | 4.27 µM | 1.52 µM | 3.02 µM | 1.88 µM | 3.43 µM | 1.6 µM | 3.13 µM | 1.56 µM | 3.07 µM |  |  | 0.479 µM | 1.97 µM | 1.42 µM | 2.81 µM | 1.98 µM | 3.48 µM |
| CC(=O)O[C@@H]1[C@@H](O)C2=C3[C@]4(C)[C@@H]1C(C)(C)C(=O)C[C@@H]4[C@]3(O)[C@H](OC(C)=O)[C@@]1(C[C@@H]1C)C2=O |  | 29.3 µM |  |  |  | > 100 µM |  |  |  | 37.7 µM |  | 30.5 µM |  | 37.1 µM |  | 40.7 µM |  | 40.6 µM |  | 37.2 µM |
| COC(=O)NC1(NC(=O)OC)NC(=O)c2cc(OC)c(OC)c(OC)c2N1 |  | > 100 µM |  | > 100 µM |  | > 100 µM |  | > 100 µM |  | > 100 µM |  |  |  | > 100 µM |  | > 100 µM |  | > 100 µM |  | > 100 µM |
| CCN1C2=NCCN2S(=O)(=O)c2ccccc21 |  |  |  | > 100 µM |  | > 100 µM |  | > 100 µM |  | > 100 µM |  | > 100 µM |  | > 100 µM |  | > 100 µM |  | > 100 µM |  | > 100 µM |
| CN(C)c1ncc(-c2ccc(C(F)(F)F)cc2)c(NC2CCCCCC2)n1 | 14.4 µM | 40.4 µM | 11.4 µM | 32.9 µM | 17.3 µM | 57.3 µM | 24.5 µM | 61 µM | 13.3 µM | 28.8 µM |  |  | 17.3 µM | 62.2 µM |  |  | 14.7 µM | 30 µM | 16.8 µM | 54 µM |
| Nc1nc2cc3ccc(C4CC(O)C(CO)O4)cc3cc2c(=O)[nH]1 (stereo not drawn) |  |  | > 100 µM | > 100 µM | > 100 µM | > 100 µM | > 100 µM | > 100 µM | > 100 µM | > 100 µM | > 100 µM | > 100 µM | > 100 µM | > 100 µM | > 100 µM | > 100 µM | > 100 µM | > 100 µM | > 100 µM | > 100 µM |
| COC(=O)Nc1nc2ccc(C(=O)c3ccc(N(C)C4COC4)cc3)cc2[nH]1 |  |  | 0.34 µM | > 100 µM | 0.713 µM | > 100 µM | 0.471 µM | > 100 µM | 0.608 µM | > 100 µM | 0.761 µM | > 100 µM | 0.561 µM | > 100 µM | 0.708 µM | > 100 µM | 0.397 µM | > 100 µM | > 100 µM | > 100 µM |
| O=C(O)c1cc2ccccc2c(N=Nc2cc(C(F)(F)F)ccc2Cl)c1O |  | > 100 µM |  | > 100 µM |  | > 100 µM |  | > 100 µM |  | 86.7 µM |  |  |  | > 100 µM |  | > 100 µM |  | > 100 µM |  | > 100 µM |
| COc1ccc(C[C@@H]2NC[C@@H](O)[C@@H]2OC(C)=O)cc1 | 3.97 µM |  |  |  | 2.76 µM |  | 19.3 µM |  |  | 0.261 µM | 3.46 µM |  | 3.19 µM |  | 1.55 µM |  |  | 0.453 µM | 2.33 µM |  |
| Cc1cc(Nc2c3ccccc3nc3ccccc23)ccc1NS(C)(=O)=O | 3.4 µM | 10.3 µM | 3.38 µM | 12.8 µM |  |  | 4.61 µM | 17.9 µM | 4.35 µM | 19.7 µM | 3.13 µM | 13.5 µM | 3.78 µM | 20.8 µM |  |  | 3.17 µM | 14 µM | 2.41 µM | 9.58 µM |
